Results taken from patent publication US20090069408A1, “TRICYCLIC COMPOUNDS USEFUL IN TREATING IRON DISORDERS” (XENON PHARMACEUTICALS INC., priority 2007, published 2009).
Where a name gives a salt, the structure may show the parent alone.

Columns and labels:
DMT1 = biological target: T1, DMT1 (Homo sapiens, UniProt P49281); experiment: DMT1 Activity Assay (in vitro); assay type: cell-based; conditions: read-out: IC50 Activity Level
T1 sequence (P49281 1-568): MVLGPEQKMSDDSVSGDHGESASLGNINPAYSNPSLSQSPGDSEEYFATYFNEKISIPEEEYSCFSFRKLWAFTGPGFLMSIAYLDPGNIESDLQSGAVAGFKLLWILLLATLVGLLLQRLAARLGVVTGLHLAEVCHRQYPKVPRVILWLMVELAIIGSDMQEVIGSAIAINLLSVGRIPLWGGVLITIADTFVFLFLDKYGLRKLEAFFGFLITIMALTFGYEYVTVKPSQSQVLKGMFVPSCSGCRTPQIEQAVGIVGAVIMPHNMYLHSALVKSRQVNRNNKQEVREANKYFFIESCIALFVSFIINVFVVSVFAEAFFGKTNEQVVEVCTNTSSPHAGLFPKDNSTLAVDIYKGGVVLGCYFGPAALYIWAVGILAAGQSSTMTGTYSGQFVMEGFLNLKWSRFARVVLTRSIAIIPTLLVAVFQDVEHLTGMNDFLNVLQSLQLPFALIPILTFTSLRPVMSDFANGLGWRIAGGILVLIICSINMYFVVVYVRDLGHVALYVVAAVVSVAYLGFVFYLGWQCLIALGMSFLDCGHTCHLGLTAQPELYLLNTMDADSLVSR
Description: In particular, identification of the compounds of the invention ability to modulate, preferably to inhibit, DMT1 activity, can be assessed using a variety of in vitro and in vivo assays, for measuring uptake of reduced iron (Fe^2+). One such protocol involves the screening of chemical agents for ability to modulate the activity of DMT1 thereby identifying it as a modulating agent. The in vitro activity of DMT1 can be measured in cell based assays by either directly measuring iron flux (using a radioactively labelled iron ^55Fe) or by measuring the fluorescence of a cell permeable iron fluorophore such as calcein. Stable cell lines overexpressing DMT1 are exposed to ^55Fe or loaded with calcein and then compound is applied. […] Alternatively, in another format electrophysiological techniques can be used to measure the current or iron or other metals traversing the cell membrane with DMT1 in a Xenopus oocyte or other cell based system (Gunshin et al., Nature, 1997, 31; 388(6641):482-8).
This example discloses various in vitro assay for testing and profiling test agents against DMT1 stably expressed in cells of either an endogenous or recombinant origin. These assays can use stable cell lines overexpressing DMT1 or intestinal cells and intestinal tissue expressing endogenous DMT1. DMT1 function could also be assessed in other cell types that express DMT1. Of greatest relevance would be the erythrocytes (e.g. K562 cells) or hepatocytes (e.g. […]).
DMT1 function can be assessed in a number of ways, including monitoring fluorescence changes of an iron fluorophore (e.g. calcein), monitoring uptake of radiolabelled iron (^55Fe or ^59Fe) (Picard et al., J. Biol. Chem., 2000, 275(46):35738-45 and Wetli et al., Chem. Biol. 2006 September; 13(9):965-72), or by assessing the current or transport of iron and other metals into the cells or tissues using standard electrophysiological techniques (Gunshin et al., Nature, 1997, 388(6641):482-8.).
Variations of these assays involve alterations of incubation times, the iron status of the cells and tissues (which may be modulated by chemical chelators or by harvesting from iron deficient animals), the metal cation detected and the pH of the reaction can generally be made by conventional techniques known to those skilled in the art.

Structure (SMILES)	melting point	IC50 (DMT1)
Cc1ccc2c(oc3c(CSC(=N)N)c(C)ccc32)c1CSC(=N)N (as salt: hydrobromid) [Example 1.3, (3,7-dimethyldibenzo[b,d]furan-4,6-diyl)bis(methylene) dicarbamimidothioate dihydrobromide]	> 220 °C	–
N=C(N)SCc1cccc2c1oc1c(CSC(=N)N)cc(F)cc12 (as salt: hydrobromid) [Example 1.6, (2-fluorodibenzo[b,d]furan-4,6-diyl)bis(methylene) dicarbamimidothioate dihydrobromide]	> 220 °C	–
N=C(N)SCc1cc(Br)cc2c1oc1c(CSC(=N)N)cc(Br)cc12 (as salt: hydrobromid) [Example 1.7, (2,8-dibromodibenzo[b,d]furan-4,6-diyl)bis(methylene) dicarbamimidothioate dihydrobromide]	> 220 °C	–
N=C(N)SCc1cccc2cc3cccc(CSC(=N)N)c3cc12 (as salt: hydrobromid) [Example 1.9, anthracene-1,8-diylbis(methylene) dicarbamimidothioate dihydrobromide]	> 250 °C	–
N=C(N)SCc1cccc2c1sc1c(CSC(=N)N)cc(F)cc12 (as salt: hydrobromid) [Example 1.10, (2-fluorodibenzo[b,d]thiophene-4,6-diyl)bis(methylene) dicarbamimidothioate dihydrobromide]	> 230 °C	–
N=C(N)SCc1cccc2c1Oc1c(CSC(=N)N)cccc1S2 (as salt: hydrobromid) [Example 1.12, phenoxathiine-4,6-diylbis(methylene) dicarbamimidothioate dihydrobromide]	> 230 °C	–
N=C(N)SCc1cccc2sc3cccc(CSC(=N)N)c3c12 (as salt: hydrobromid) [Example 1.14, dibenzo[b,d]thiophene-1,9-diylbis(methylene) dicarbamimidothioate dihydrobromide]	228 to 230 °C	–
Cc1ccc2c(oc3c(CSC(=N)N)c(C)ccc32)c1CSC(=N)N [Example 1.3, (3,7-dimethyldibenzo[b,d]furan-4,6-diyl)bis(methylene) dicarbamimidothioate dihydrobromide]	–	100 to 1000 nM
N=C(N)SCc1c(Cl)ccc2c1oc1c(CSC(=N)N)c(Cl)ccc12 [Example 1.5, (3,7-dichlorodibenzo[b,d]furan-4,6-diyl)bis(methylene) dicarbamimidothioate]	–	100 to 1000 nM
N=C(N)SCc1cccc2cc3cccc(CSC(=N)N)c3cc12 [Example 1.9, anthracene-1,8-diylbis(methylene) dicarbamimidothioate dihydrobromide]	–	100 to 1000 nM
N=C(N)SCc1cccc2c1sc1c(CSC(=N)N)cc(F)cc12 [Example 1.10, (2-fluorodibenzo[b,d]thiophene-4,6-diyl)bis(methylene) dicarbamimidothioate dihydrobromide]	–	100 to 1000 nM
N=C(N)SCc1cccc2c1Oc1c(CSC(=N)N)cccc1S2 [Example 1.12, phenoxathiine-4,6-diylbis(methylene) dicarbamimidothioate dihydrobromide]	–	100 to 1000 nM
N=C(N)SCc1c(Br)ccc2c1oc1c(CSC(=N)N)c(Br)ccc12 [Example 1.13, (3,7-dibromodibenzo[b,d]furan-4,6-diyl)bis(methylene) dicarbamimidothioate dihydrobromide]	–	100 to 1000 nM
N=C(N)SCc1cccc2sc3cccc(CSC(=N)N)c3c12 [Example 1.14, dibenzo[b,d]thiophene-1,9-diylbis(methylene) dicarbamimidothioate dihydrobromide]	–	≥ 1000 nM
N=C(N)SCc1cccc2c1-c1c(CSC(=N)N)cccc1C2=O [Example 1.15, (9-oxo-9H-fluorene-4,5-diyl)bis(methylene) dicarbamimidothioate dihydrobromide]	–	≥ 1000 nM
N=C(N)SCc1cccc2c(=O)c3cccc(CSC(=N)N)c3oc12 [Example 1.16, (9-oxo-9H-xanthene-4,5-diyl)bis(methylene) dicarbamimidothioate dihydrobromide]	–	≥ 1000 nM
Cc1c2cccc(CSC(=N)N)c2nc2c(CSC(=N)N)cccc12 [Example 1.17, (9-methylacridine-4,5-diyl)bis(methylene) dicarbamimidothioate dihydrobromide]	–	≥ 1000 nM
N=C(N)SCc1cccc2cc3cccc(CSC(=N)N)c3nc12 [Example 1.18, acridine-4,5-diylbis(methylene) dicarbamimidothioate dihydrobromide]	–	100 to 1000 nM
N=C(N)SCc1cccc2c1-c1c(cccc1CSC(=N)N)CSC2 [Example 1.19, (5,7-dihydrodibenzo[c,e]thiepine-1,11-diyl)bis(methylene) dicarbamimidothioate dihydrobromide]	–	≥ 1000 nM
N=C(N)SCc1cccc2c1C(=O)c1c(CSC(=N)N)cccc1-2 [Example 2, (9-oxo-9H-fluorene-1,8-diyl)bis(methylene) dicarbamimidothioate dihydrobromide]	–	100 to 1000 nM
N=C(N)SCc1ccc(CSC(=N)N)c2c1-c1c(CSC(=N)N)ccc(CSC(=N)N)c1-2 [Example 3, biphenylene-1,4,5,8-tetrayltetrakis(methylene) tetracarbamimidothioate tetrahydrobromide]	–	100 to 1000 nM
CC(C)(C)c1cc(CSC(=N)N)c2c(c1)C(C)(C)c1cc(C(C)(C)C)cc(CSC(=N)N)c1O2 [Example 4, (2,7-di-tert-butyl-9,9-dimethyl-9H-xanthene-4,5-diyl)bis(methylene) dicarbamimidothioate dihydrobromide]	–	≥ 1000 nM

The remaining lines, values ahead:

melting point	IC50 (DMT1)	Structure (SMILES)
–	100 to 1000 nM	N=C(N)SCc1cccc2c1sc1c(CSC(=N)N)cccc12 [Example 1, dibenzo[b,d]thiophene-4,6-diylbis(methylene) dicarbamimidothioate dihydrobromide]
–	100 to 1000 nM	N=C(N)SCc1c(Br)ccc2c1sc1c(CSC(=N)N)c(Br)ccc12 [Example 1.1, (3,7-dibromodibenzo[b,d]thiophene-4,6-diyl)bis(methylene) dicarbamimidothioate dihydrobromide]
–	100 to 1000 nM	N=C(N)SCc1cccc2c1sc1c(CSC(=N)N)c(Br)ccc12 [Example 1.2, (3-bromodibenzo[b,d]thiophene-4,6-diyl)bis(methylene) dicarbamimidothioate dihydrobromide]
–	10 to 100 nM	N=C(N)SCc1c(F)ccc2c1oc1c(CSC(=N)N)c(F)ccc12 [Example 1.4, (3,7-difluorodibenzo[b,d]furan-4,6-diyl)bis(methylene) dicarbamimidothioate dihydrobromide]
–	10 to 100 nM	N=C(N)SCc1cccc2c1oc1c(CSC(=N)N)cc(F)cc12 [Example 1.6, (2-fluorodibenzo[b,d]furan-4,6-diyl)bis(methylene) dicarbamimidothioate dihydrobromide]
–	10 to 100 nM	N=C(N)SCc1cc(Br)cc2c1oc1c(CSC(=N)N)cc(Br)cc12 [Example 1.7, (2,8-dibromodibenzo[b,d]furan-4,6-diyl)bis(methylene) dicarbamimidothioate dihydrobromide]
–	10 to 100 nM	N=C(N)SCc1cccc2c1oc1c(CSC(=N)N)cccc12 [Example 1.8, dibenzo[b,d]furan-4,6-diylbis(methylene) dicarbamimidothioate dihydrobromide]
–	10 to 100 nM	N=C(N)SCc1cc(F)cc2c1sc1c(CSC(=N)N)cc(Cl)cc12 [Example 1.11, (2-chloro-8-fluorodibenzo[b,d]thiophene-4,6-diyl)bis(methylene) dicarbamimidothioate dihydrobromide]
–	10 to 100 nM	N=C(N)SCc1cccc2c1-c1c(CSC(=N)N)cccc1-2 [Example 2.1, biphenylene-1,8-diylbis(methylene)dicarbamimidothioate dihydrobromide]
–	10 to 100 nM	N=C(N)SCc1cc(F)cc2c1-c1c(CSC(=N)N)cc(F)cc1-2 [Example 5, (3,6-difluorobiphenylene-1,8-diyl)bis(methylene) dicarbamimidothioate dihydrobromide]
